Test results from patent US11034839B2, “Compounds, linked with haptens, for the detection of senescent cells” (THE UNIVERSITY OF MANCHESTER, priority 2016, dated 2021).

Columns and labels:
[1] = tested on: lipofuscin rich senescent cells, induced Saos2-p21WAF1/Cip1 Tet-ON cells; experiment: Immunohistochemistry staining in induced Saos2-p21WAF1/Cip1 Tet-ON cellular system; format: cell-based, human; conditions: FIG. 13
Procedure: • 1. Compound (LG13) • 2. 100% ethanol (100% EtOH) • 3. Parafilm • 4. Fritted glass filter of medium porosity • 5. Airtight Dye Container 2.2.2 General Procedure: • 1. Dissolve 40 mg of the compound (LG13) in 7.4 ml 100% EtOH in a glass beaker and cover it with parafilm. • 2. Incubate at 56° C. in a waterbath for 120 min until the compound is completely dissolved. 2.3. General Method for Compound (LG13) Staining 2.3.1 Materials: • 1. Xylene • 2. […] Syringe • 4. 13 mm filter, membrane 0.22 μm • 5. Soft paper (dry or dipped in ethanol) • 6. Anti-biotin antibody ([Hyb-8] ab201341, Abcam) • 7. Ultravision Quanto Detection System HRP DAB kit (Cat no: TL-125-QHD) • 8. Glycerol (Sigma-Aldrich) • 9. Tris Buffered Saline (TBS; 10×): 1.5 M NaCl, 0.1 M Tris-HCl, pH 7.4. Store at 4° C. • 10. 0.5% Triton X/TBS: 0.5 ml Triton X diluted in 99.5 ml TBS • 11. Mounting media Glycergel (DakoCytomation). • 12. Light Microscope • 13. Anti-p21^WAF1/Cip1 mouse primary antibody [(F-5)(sc-6246) Santa-Cruz] • 14. Anti-p16^INK4A mouse primary antibody [(sc-74401) Santa-Cruz] • 15. Anti-Ki67 rabbit polyclonal antibody [ab16667, Abcam] • 16. Secondary goat anti-mouse antibody Alexa Fluor 568 conjugated [Thermo Fisher Scientific (Cat no: A-11004)] • 17. DAPI (4′,6-Diamidino-2-Phenylindole, Dihydrochloride) [Thermo Fisher Scientific (Cat no: D1306)] • 18. Fluorescence microscope 2.3.2 General Procedures: 2.3.2.1 General Staining Protocol for Cells Mounted on Coverslips • 1. Wash ×1 in TBS for 5 min at RT. • 2. Block the endogenous hydrogen peroxidase, using the UltraVision Hydrogen Peroxide Block included in the Ultravision Quanto Detection System HRP DAB kit (Cat no: TL-125-QHD) for 10 min at RT and in dark conditions. • 3. Wash ×2 in TBS for 30 sec and ×1 for 5 min at RT. • 4. Wash ×1 in EtOH 50% for 5 min at RT. • 5. Wash ×1 EtOH 70% for 5 min at RT. • 6. […] The staining reaction is monitored under the light microscope until detection of the signal (average time 5-8 min). • 8. […] The staining reaction is monitored under the light microscope until detection of the dark brown signal (average time 30 sec-1 min) at RT 1. • 20. […]

[2] = tested on: senescent cells (lipofuscin); conditions: Georgakopoulou et al, 2013; cited from earlier work
[3] = tested on: senescent cells in irradiated human laryngeal tumors and mouse lung adenomas; experiment: Histochemical staining of paraffin embedded, formalin fixed tissue sections (same method as for SBB); conditions: FFPE sections of irradiated human laryngeal tumors and mouse lung adenomas; dye in 70% ethanol, 10 min
Text: In the following comparative example 1 the histochemical dye SBB was used to detect senescent cells in tissue sections by the histochemical method previously described [Georgakopoulou et al, Aging (Albany N.Y.) 2013].
Tissue sections were obtained from paraffin embedded, formalin fixed: (a) irradiated human laryngeal tumors and (b) mouse lung adenomas, with established presence of senescent cells. Subsequently, they were immobilized on glass microscopy slides by standard procedures and processed as follows: • a. Deparaffinization for 5 min at room temperature in xylene. • b. Gradual rehydration in solutions of descending concentration of ethanol (100%, 80%, 70%, 50% v/v) and finally in TBS (Tris-buffered saline) or PBS (Phosphate-buffered saline) solution. • c. The SBB dye was diluted in 70% ethanol (v/v), filtered and then applied on tissue sections for 10 min. • d. Quick wash in 50% (v/v) ethanol. • e. Transfer and wash in TBS or PBS solution. • f. Counterstain with Hematoxylin or Nuclear Fast Red, followed by mounting with glycerol and sealed with a cover slip. • g. Microscopy observation. […]

Ethanol solubility = format: physicochemical
lipofuscin = conditions: Georgakopoulou et al., 2013; cited from earlier work
[4] = tested on: senescent cells in biological systems with established senescence; experiment: Quantitative analysis and concordance of SA-b-gal, SBB and GL13 staining; conditions: FIG. 15
[5] = tested on: HeLa cancer cells and near normal Li-Fraumeni fibroblasts; experiment: False-positive studies (cell confluency, serum starvation); format: cell-based, human; conditions: compared with SA-b-gal, FIGS. 17 and 18
Text: The in vitro models comprised seven cellular systems. […] The same cellular system was used at early passages that underwent SIPS upon y-irradiation and was compared in relation to non-irradiated counterparts. Another set of models comprised two inducible Saos2 Tet-ON osteosarcoma cell lines carrying p53 and p21^WAF1/Cip1, respectively, two well established effectors of senescence (Georgakopoulou et al., 2013; Galanos et al., 2016). Finally, the U2OS-E2F1 ER, U205-Cdt1 Tet-ON and HBECs-Cdc6 Tet-ON inducible systems that undergo SIPS due to oncogenic stress signals were also utilized (Petrakis et al., 2016; Liontos et al., 2007; Liontos et al., 2009). Parental cell lines were obtained either directly from ATCC or from collaborating laboratories that generated them. In addition, the human cancer cell line HeLa and near normal Li-Fraumeni fibroblasts (Galanos et al., 2016) were also employed as control cell lines for the specificity of staining of the SBB compounds.

Compound: CC1(CCOC(=O)CCCC[C@H]2SC[C@H]3NC(=O)N[C@H]32)Nc2cccc3c(/N=N/c4ccc(/N=N/c5ccccc5)c5ccccc45)ccc(c23)N1 (stereo partly drawn) [LG39, 2-(2-Methyl-6-((E)-(4-((E)-phenyldiazenyl)naphthalen-1-yl)diazenyl)-2,3-dihydro-1H-perimidin-2-yl)ethyl 5-((3aR,4R,6aS)-2-oxohexahydro-1H-thieno[3,4-d]imidazol-4-yl)pentanoate]
- detection of lipofuscin rich senescent cells by immunohistochemistry staining [1]: detect robustly lipofuscin rich senescent cells

Compound: CC1(C)Nc2cccc3c(/N=N/c4ccc(/N=N/c5ccc(CCOC(=O)CCCC[C@H]6SC[C@H]7NC(=O)N[C@H]76)cc5)c5ccccc45)ccc(c23)N1 [LG52, 4-((E)-(4-((E)-(2,2-Dimethyl-2,3-dihydro-1H-perimidin-6-yl)diazenyl)naphthalen-1-yl)diazenyl)phenethyl 5-((3aR,4R,6aS)-2-oxohexahydro-1H-thieno[3,4-d]imidazol-4-yl)pentanoate]
- detection of lipofuscin rich senescent cells by immunohistochemistry staining [1]: detect robustly lipofuscin rich senescent cells

Compound: CC1(CCCOC(=O)CCCC[C@H]2SC[C@H]3NC(=O)N[C@H]32)Nc2cccc3c(/N=N/c4ccc(/N=N/c5ccccc5)c5ccccc45)ccc(c23)N1 (stereo partly drawn) [LG56, 3-(2-Methyl-6-((E)-(4-((E)-phenyldiazenyl)naphthalen-1-yl)diazenyl)-2,3-dihydro-1H-perimidin-2-yl)propyl 5-((3aR,4R,6aS)-2-oxohexahydro-1H-thieno[3,4-d]imidazol-4-yl)pentanoate]
- detection of lipofuscin rich senescent cells by immunohistochemistry staining [1]: detect robustly lipofuscin rich senescent cells

Compound: CC1(C)Nc2cccc3c(/N=N/c4ccc(/N=N/c5ccccc5)c5ccccc45)ccc(c23)N1 [SBB, Sudan Black B]
- selectivity of lipofuscin stain for senescent cells [2]: highly selective for the detection of senescent cells
- histochemical staining of senescent cells [3]: senescent cells are clearly stained
- ethanol solubility (Ethanol solubility): ethanol solubility problems
- effect of staining on lipofuscin autofluorescence (lipofuscin): quenched
- specificity compared among SA-b-gal, SBB and GL13 staining [4]: concordance of specificity
- false-positive staining due to serum starvation and cell confluency [5]: deprived of the false-positive staining disadvantages
